Laboratory results as given in PubChem BioAssay (NCI).
Values joined by “and” are separate entries in the source; they are usually repeats but may differ in a detail not shown here. Equal entries are not always repeated.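 Method: 48-hour compound exposure of cells in 96-well plates, five concentrations, linear interpolation of endpoints. GI50 = concentration required for 50% inhibition of growth. Definition used: TGI = concentration required for complete inhibition of growth.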

What was measured:
Assay in all cases: NCI-60 cell line screen, 48 h
[1] = tested on: BT-549 breast
[2] = tested on: HCT-116 colon
[3] = tested on: MOLT-4 leukemia
[4] = tested on: SF-295 CNS
[5] = tested on: SK-MEL-2 melanoma
[6] = tested on: SNB-19 CNS
[7] = tested on: SNB-75 CNS
[8] = tested on: SW-620 colon
[9] = tested on: U251 CNS
[10] = tested on: UACC-257 melanoma

SMILES	TGI [1]	GI50 [2]	TGI [2]	TGI [3]	TGI [4]	GI50 [5]	TGI [5]	TGI [6]	GI50 [7]	TGI [7]	GI50 [8]	TGI [8]	TGI [9]	TGI [10]	GI50 [3]
NC(CS)C(=O)NCCNc1ccc(NCCNC(=O)C(N)CS)c2c1C(=O)c1c(O)ccc(O)c1C2=O (centres undefined)	1.42 µM	0.0176 µM	0.261 µM and 0.154 µM	0.62 µM	0.276 µM and 0.0386 µM	0.227 µM	1.38 µM and 0.87 µM	1.11 µM and 1.21 µM	0.0146 µM	0.2 µM and 0.206 µM	0.0218 µM	1.24 µM and 1.01 µM	0.136 µM and 0.117 µM	2.41 µM and 2.29 µM	–
CC1(C)OC2OC(C(=O)c3ccccc3)C3OC(C)(C)OC3C2O1 (centres undefined)	> 100 µM	–	> 100 µM	> 100 µM	> 100 µM	–	> 100 µM	> 100 µM	–	> 100 µM	–	> 100 µM	> 100 µM	> 100 µM	–
COC(=O)C1CCCN1C(=O)OC(C)(C)C (centres undefined)	> 100 µM	–	> 100 µM	> 100 µM	> 100 µM	–	> 100 µM	> 100 µM	–	> 100 µM	–	> 100 µM	> 100 µM	> 100 µM	–
CN(C)C1(c2cc3ccccc3s2)CCCCC1	> 100 µM	–	> 100 µM	> 100 µM	> 100 µM	–	47.7 µM	> 100 µM	–	> 100 µM	–	> 100 µM	> 100 µM	80.4 µM	–
CCOC(=O)c1cc([N+](=O)[O-])cc([N+](=O)[O-])c1Sc1ncnc2nc[nH]c12	8.59 µM	–	7.69 µM	> 26.8 µM	38.1 µM	–	9.43 µM	43 µM	–	25.1 µM	–	> 100 µM	24.8 µM	–	–
Cn1c(=O)oc2cc(C(=S)N3CCCCC3)ccc21	> 100 µM	–	> 100 µM	> 100 µM	> 100 µM	–	> 100 µM	> 100 µM	–	> 100 µM	–	> 100 µM	> 100 µM	> 100 µM	–
N#CCN1CCCN(CC#N)CCN(CC#N)CCCN(CC#N)CC1	> 100 µM	–	> 100 µM	> 100 µM	> 100 µM	–	> 100 µM	> 100 µM	–	> 100 µM	–	> 100 µM	> 100 µM	> 100 µM	–
Nc1nc(N)c2nc(CNc3ccc(C(=O)NC(CCNC(=O)c4ccccc4C(=O)O)C(=O)O)cc3)cnc2n1 (centres undefined)	> 100 µM	–	> 100 µM	> 100 µM	> 100 µM	–	> 100 µM	> 100 µM	–	> 100 µM	0.00628 µM	> 100 µM	> 100 µM	> 100 µM	0.0453 µM
COc1cc(/C=C/C2=NN(c3cccc(S(=O)(=O)O)c3)C3(C2)SCC(=O)N3c2nc3ccccc3s2)cc(OC)c1OC (centres undefined)	> 100 µM	–	> 100 µM	> 100 µM	–	–	> 100 µM	> 100 µM	–	> 100 µM	–	> 100 µM	> 100 µM	> 100 µM	–
COc1cc2nc3n(c(=O)c2cc1OC)CCCCC3	> 100 µM	–	> 100 µM	> 100 µM	> 100 µM	–	> 100 µM	–	–	> 100 µM	–	> 100 µM	> 100 µM	> 100 µM	–
O=C1C=CC(=O)[C@H]2C3C=CC(C4C3C3(Cl)C(Cl)=C(Cl)[C@]4(Cl)C3(Cl)Cl)[C@@H]12 (some centres undefined)	19.2 µM	–	12.9 µM	36 µM	25.2 µM	–	20.3 µM	17 µM	–	25 µM	–	23.2 µM	13.3 µM	6.23 µM	–
CON(C(=O)OC(C)(C)C)c1ccccc1	> 100 µM	–	> 100 µM	> 100 µM	> 100 µM	–	> 100 µM	> 100 µM	–	> 100 µM	–	> 100 µM	> 100 µM	> 100 µM	–
CC1(C)OC2[C@@H](CO[C@@]3([C@H]4OC(C)(C)O[C@@H]4CO)OC(C)(C)O[C@@H]23)O1 (some centres undefined)	> 100 µM	–	> 100 µM	> 100 µM	> 100 µM	–	> 100 µM	> 100 µM	–	> 100 µM	–	> 100 µM	> 100 µM	–	–
O=C1c2c(F)c(F)c(F)c(F)c2SC2=Nc3cccc4cccc(c34)N12	23.9 µM	–	11.9 µM	6.01 µM	30.9 µM	–	7.89 µM	21.1 µM	–	25.5 µM	–	12 µM	10.7 µM	13.2 µM	–
Clc1ccc(Nc2nnc(CNc3ccc(-c4nnc(Nc5ccc(Cl)cc5)o4)cc3)o2)cc1	38.6 µM	–	33.7 µM	49.3 µM	38.4 µM	–	45.8 µM	46 µM	–	45.1 µM	–	51.2 µM	23.2 µM	50.6 µM	–
CCC1OC2C(CC=C(C)C)=C3OC(C)(O)C(C)(CC)C(=O)C3=C3OC(=O)C=C1C32 (centres undefined)	49.5 µM	–	36.9 µM	> 100 µM	> 100 µM	–	36.1 µM	> 100 µM	–	–	–	> 100 µM	> 100 µM	96.2 µM	–
CCOC(=O)CCC(C(=O)OCC)n1nnc2ccc(Nc3c(C)[n+]([O-])c4cc(F)c(OCC)cc4[n+]3[O-])cc21 (centres undefined)	> 100 µM	–	> 100 µM	> 100 µM	> 100 µM	–	> 100 µM	> 100 µM	–	> 100 µM	–	> 100 µM	> 100 µM	42 µM	–
O=C(CBr)NCCc1c[nH]c2ccccc12	3.83 µM	–	3.15 µM	1.92 µM	28.6 µM	–	4.16 µM	20 µM	–	3.12 µM	–	7.71 µM	3.53 µM	8.54 µM	–
C=C(C)[C@@H]1CCC2=C(CC[C@]3(C)[C@@H]([C@@H](CCC=C(C)C)C(=O)O)[C@H](O)C[C@@]23C)[C@@]1(C)CCC(=O)O	> 100 µM	–	> 100 µM	> 100 µM	> 100 µM	–	> 100 µM	> 100 µM	–	> 100 µM	–	> 100 µM	> 100 µM	> 100 µM	–
COc1cc2c(cc1OC)-c1[nH]c3ccc([N+](=O)[O-])cc3c1CC(=O)N2	> 100 µM	–	–	> 76.4 µM	> 87.8 µM	–	> 52.3 µM	> 100 µM	–	8.93 µM	–	> 100 µM	> 100 µM	47.1 µM	–
Cc1cc(N)c2cc(NC(=O)Nc3ccc4nc(C)cc(N)c4c3)ccc2n1	> 100 µM	–	> 100 µM	> 100 µM	> 100 µM	–	> 100 µM	> 100 µM	–	–	–	> 100 µM	> 100 µM	> 100 µM	–
